According to US4604380A, “C-23-substituted mycaminosyltylonolide compounds, pharmaceutical compositions and methods of use” (Eli Lilly and Company, priority 1985, dated 1986):
Values after ≈ are worked out from the molar mass of the structure shown. Values joined by “and” are separate entries in the source; they are usually repeats but may differ in a detail not shown here. Equal entries are not always repeated. Where two headings read alike, the source gives them in different places.

Legend:
[1] = tested on: Haemophilus influenzae 76; assay: MIC, standard agar-dilution assay (Table III); type: cell-based; details: agar dilution; Haemophilus influenzae 76, ampicillin-resistant strain; read-out: MIC
Procedure: (§1) The MIC's s in Table III were determined by standard agar-dilution assays. The MIC's in Table IV were obtained using a conventional broth-dilution microtiter test.

[2] = tested on: Haemophilus influenzae C.L.; assay: MIC, standard agar-dilution assay (Table III); type: cell-based
Procedure: as §1

[3] = tested on: Staphylococcus aureus S13E; assay: MIC, standard agar-dilution assay (Table III); type: cell-based
Procedure: as §1

[4] = tested on: Staphylococcus aureus V41; assay: MIC, standard agar-dilution assay (Table III); type: cell-based; details: Staphylococcus aureus V41, penicillin-resistant strain
Procedure: as §1

[5] = tested on: Staphylococcus aureus X1.1; assay: MIC, standard agar-dilution assay (Table III); type: cell-based
Procedure: as §1

[6] = tested on: Staphylococcus aureus X400; assay: MIC, standard agar-dilution assay (Table III); type: cell-based
Procedure: as §1

[7] = tested on: Staphylococcus epidermidis 222; assay: MIC, standard agar-dilution assay (Table III); type: cell-based
Procedure: as §1

[8] = tested on: Staphylococcus epidermidis EPI1; assay: MIC, standard agar-dilution assay (Table III); type: cell-based
Procedure: as §1

[9] = tested on: Streptococcus Group D 2041; assay: MIC, standard agar-dilution assay (Table III); type: cell-based; details: GROUPD2041
Procedure: as §1

[10] = tested on: Streptococcus Group D X66; assay: MIC, standard agar-dilution assay (Table III); type: cell-based
Procedure: as §1

[11] = tested on: Streptococcus pyogenes C203; assay: MIC, standard agar-dilution assay (Table III); type: cell-based
Procedure: as §1

[12] = tested on: Streptococcus pneumoniae Park I; assay: microbe, parasite or virus in culture; type: cell-based; details: read-out: MIC
Procedure: as §1

Staphylococcus aureus = assay: ED50 vs. Staphylococcus aureus experimental infection in mice (Table V); type: in vivo; details: two doses, dose protecting 50% of animals
Procedure: (§2) Certain formula 1a compounds have also shown in vivo antimicrobial activity against experimental bacterial infections. When two doses of test compound were administered to mice in experimental infections, the activity observed was measured as an ED50 value [effective dose in mg/kg to protect 50% of the test animals: see Warren Wick, et al., J. Bacteriol. 81, 233-235 (1961)].

Streptococcus pyogenes = assay: ED50 vs Streptococcus pyogenes experimental infection in mice (Table VI); type: in vivo; details: two doses, several values = results from more than one test
Procedure: as §2

[13] = tested on: Streptococcous pneumoniae; assay: ED50 vs. Streptococcous pneumoniae experimental infection in mice (Table VII); type: in vivo; details: two doses; for ED50: Mus musculus
Procedure: as §2

[14] = tested on: Bordetella bronchisepticum 95B; assay: MIC, conventional broth-dilution microtiter test (Table IV); type: cell-based
Procedure: as §1

[15] = tested on: Mycoplasma gallisepticum 15E; assay: as above; type: cell-based; details: Mycoplasmoides gallisepticum; broth-dilution microtiter; Mycoplasma gallisepticum 15E; read-out: MIC
Procedure: as §1

[16] = tested on: Mycoplasma gallisepticum 29C; assay: as above; type: cell-based; details: Mycoplasmoides gallisepticum; broth-dilution microtiter; Mycoplasma gallisepticum 29C; read-out: MIC
Procedure: as §1

[17] = tested on: Mycoplasma gallisepticum 36H; assay: as above; type: cell-based; details: Mycoplasmoides gallisepticum; broth-dilution microtiter; Mycoplasma gallisepticum 36H; read-out: MIC
Procedure: as §1

[18] = tested on: Mycoplasma hyopneumoniae S5972; assay: as above; type: cell-based; details: Mesomycoplasma hyopneumoniae; broth-dilution microtiter; Mycoplasma hyopneumoniae S5972; read-out: MIC
Procedure: as §1

Mycoplasma hyorhinis 29E = assay: as above; type: cell-based; details: Mycoplasma, 29E
Procedure: as §1

Mycoplasma synoviae 40A = assay: as above; type: cell-based; details: Mycoplasmopsis synoviae, 40A
Procedure: as §1

[19] = tested on: Pasteurella hemolytica 22C; assay: as above; type: cell-based; details: broth-dilution microtiter; Pasteurella hemolytica 22C; read-out: MIC
Procedure: as §1

[20] = tested on: Pasteurella hemolytica 23C; assay: as above; type: cell-based; details: broth-dilution microtiter; Pasteurella hemolytica 23C; read-out: MIC
Procedure: as §1

[21] = tested on: Pasteurella hemolytica 41D; assay: as above; type: cell-based; details: broth-dilution microtiter; Pasteurella hemolytica 41D; read-out: MIC
Procedure: as §1

[22] = tested on: Pasteurella multocida 17E; assay: as above; type: cell-based; details: broth-dilution microtiter; Pasteurella multocida 17E, bovine isolate; read-out: MIC
Procedure: as §1

[23] = tested on: Pasteurella multocida 22A; assay: as above; type: cell-based; details: broth-dilution microtiter; Pasteurella multocida 22A; read-out: MIC
Procedure: as §1

[24] = tested on: Pasteurella multocida 40G; assay: as above; type: cell-based; details: broth-dilution microtiter; Pasteurella multocida 40G; read-out: MIC
Procedure: as §1

[25] = tested on: Pasteurella multocida 60A; assay: as above; type: cell-based; details: broth-dilution microtiter; Pasteurella multocida 60A, avian isolate; read-out: MIC
Procedure: as §1

[26] = tested on: Pasteurella multocida 68C; assay: as above; type: cell-based; details: broth-dilution microtiter; Pasteurella multocida 68C; read-out: MIC
Procedure: as §1

[27] = tested on: Staphylococcus aureus 19C; assay: as above; type: cell-based; details: broth-dilution microtiter; Staphylococcus aureus 19C; read-out: MIC
Procedure: as §1

Streptococcus sp. 19F = assay: as above; type: cell-based
Procedure: as §1

[28] = agar dilution, Haemophilus influenzae C.L., ampicillin-sensitive strain, read-out: MIC
[29] = Staphylococcus epidermidis, 222
[30] = Staphylococcus epidermidis, EPI1
[31] = agar dilution, Streptococcus Group D 2041, read-out: MIC
[32] = agar dilution, Streptococcus Group D X66, read-out: MIC
[33] = agar dilution, Streptococcus pneumoniae Park I
[34] = sc, subcutaneous, read-out: ED50 Subcutaneous
[35] = agar dilution, Staphylococcus epidermidis 222, read-out: MIC
[36] = agar dilution, Streptococcus pyogenes C203, read-out: MIC

For `CCC1OC(=O)CC(O)C(C)C(OC2OC(C)C(O)C(N(C)C)C2O)C(CC=O)CC(C)C(=O)C=CC(C)=CC1CN1CC2CC=CCC2C1` (stereo not shown) [Compound 37], the MIC [1] was 1 µg/mL (≈ 1.42 µM), the MIC [2, 28] was 0.5 µg/mL (≈ 0.711 µM) and the MIC [3] was 0.25 µg/mL (≈ 0.356 µM). For the same compound, the MIC [4] was 0.25 µg/mL (≈ 0.356 µM), the MIC [5] was 0.25 µg/mL (≈ 0.356 µM) and the MIC ([6]; Staphylococcus aureus, X400) was 0.25 µg/mL (≈ 0.356 µM). For the same compound, the MIC [7, 29] was 0.06 µg/mL (≈ 0.0854 µM), the MIC [8, 30] was 0.25 µg/mL (≈ 0.356 µM) and the MIC [9, 31] was 0.25 µg/mL (≈ 0.356 µM). It also gave an MIC [10, 32] of 0.125 µg/mL (≈ 0.178 µM), an MIC ([11]; Streptococcus pyogenes, C203) of 0.06 µg/mL (≈ 0.0854 µM) and an MIC [12, 33] of 0.125 µg/mL (≈ 0.178 µM). For the same compound, the ED50 (Staphylococcus aureus; po, read-out: ED50 Oral) was 85 mg/kg, the ED50 (Staphylococcus aureus; [34]) was 2.74 mg/kg and the “ED50 Subcutaneous” value (Staphylococcus aureus; subcutaneous) was 3.92 mg/kg × 2 and 3.42 mg/kg × 2. It also gave an ED50 (Streptococcus pyogenes; po, read-out: ED50 Oral) of 87 mg/kg, an ED50 ([13]; po, read-out: ED50 Oral) of 87 mg/kg and an ED50 [13, 34] of 1.66 mg/kg. For the same compound, the “ED50 Subcutaneous” value ([13]; subcutaneous) was 2.97 mg/kg × 2.
Compound `CCC1OC(=O)CC(O)C(C)C(OC2OC(C)C(O)C(N(C)C)C2O)C(CC=O)CC(C)C(=O)C=CC(C)=CC1CN1CCC2(CCCCC2)CC1` (stereo not shown) [Compound 27, 23-deoxy-23-(3-azaspiro[5.5]undecan-3-yl)-OMT] has an MIC [1] of 2 µg/mL (≈ 2.73 µM), an MIC [2, 28] of 2 µg/mL (≈ 2.73 µM) and an MIC [3] of 0.5 µg/mL (≈ 0.682 µM). It also gave an MIC [4] of 0.5 µg/mL (≈ 0.682 µM), an MIC [5] of 0.5 µg/mL (≈ 0.682 µM) and an MIC ([6]; Staphylococcus aureus, X400) of 0.5 µg/mL (≈ 0.682 µM). It also gave an MIC [7, 35] of 0.25 µg/mL (≈ 0.341 µM), an MIC [8, 30] of 0.5 µg/mL (≈ 0.682 µM) and an MIC [9] of 0.5 µg/mL (≈ 0.682 µM). For the same compound, the MIC [10, 32] was 0.25 µg/mL (≈ 0.341 µM), the MIC [11, 36] was 0.25 µg/mL (≈ 0.341 µM) and the MIC ([12]; Streptococcus pneumoniae) was 0.06 µg/mL (≈ 0.0819 µM). For the same compound, the ED50 (Staphylococcus aureus; [34]) was 3.08 mg/kg, the ED50 (Streptococcus pyogenes; [34]) was > 10 mg/kg and the ED50 [13, 34] was > 10 mg/kg.
With `CCC1OC(=O)CC(O)C(C)C(OC2OC(C)C(O)C(N(C)C)C2O)C(CC=O)CC(C)C(=O)C=CC(C)=CC1CN1C2CCCCC2C2CCCCC21` (stereo not shown) [Compound 25, 23-deoxy-23-(dodecahydro-9H--carbazol-9-yl)-OMT] the MIC [1] was 1 µg/mL (≈ 1.32 µM), the MIC [2, 28] was 4 µg/mL (≈ 5.27 µM) and the MIC [3] was 0.5 µg/mL (≈ 0.659 µM). It also gave an MIC [4] of 0.5 µg/mL (≈ 0.659 µM), an MIC [5] of 0.5 µg/mL (≈ 0.659 µM) and an MIC ([6]; agar dilution, Staphylococcus aureus X400, methicillin-resistant strain, read-out: MIC) of 1 µg/mL (≈ 1.32 µM). For the same compound, the MIC [7, 29] was 0.25 µg/mL (≈ 0.329 µM), the MIC ([8]; agar dilution, Staphylococcus epidermidis EPI1, read-out: MIC) was 0.5 µg/mL (≈ 0.659 µM) and the MIC [9, 31] was 0.5 µg/mL (≈ 0.659 µM). For the same compound, the MIC [10, 32] was 0.5 µg/mL (≈ 0.659 µM), the MIC [11, 36] was 0.25 µg/mL (≈ 0.329 µM) and the MIC [12, 33] was 0.125 µg/mL (≈ 0.165 µM). It also gave an MIC [14] of 25 µg/mL (≈ 32.9 µM), an MIC [15] of 50 µg/mL (≈ 65.9 µM) and an MIC [16] of 0.097 µg/mL (≈ 0.128 µM). The MIC [17] was 50 µg/mL (≈ 65.9 µM), the MIC [18] was < 0.012 µg/mL and the MIC (Mycoplasma hyorhinis 29E) was < 0.048 µg/mL. For the same compound, the MIC (Mycoplasma synoviae 40A) was < 0.048 µg/mL, the MIC [19] was 3.12 µg/mL (≈ 4.11 µM) and the MIC [20] was 1.56 µg/mL (≈ 2.06 µM). For the same compound, the MIC [21] was 1.56 µg/mL (≈ 2.06 µM), the MIC [22] was 1.56 µg/mL (≈ 2.06 µM) and the MIC [23] was 1.56 µg/mL (≈ 2.06 µM). The MIC [24] was 1.56 µg/mL (≈ 2.06 µM), the MIC [25] was 1.56 µg/mL (≈ 2.06 µM) and the MIC [26] was 1.56 µg/mL (≈ 2.06 µM). The MIC [27] was 0.78 µg/mL (≈ 1.03 µM), the MIC (Streptococcus sp. 19F) was < 0.048 µg/mL and the ED50 (Staphylococcus aureus; [34]) was 7.69 mg/kg. For the same compound, the ED50 (Streptococcus pyogenes; po, read-out: ED50 Oral) was 63 mg/kg, the ED50 (Streptococcus pyogenes; [34]) was 7.43 mg/kg and the “ED50 Subcutaneous” value (Streptococcus pyogenes; subcutaneous) was > 10 mg/kg × 2. The ED50 [13, 34] was > 10 mg/kg.
For `CCC1OC(=O)CC(O)C(C)C(OC2OC(C)C(O)C(N(C)C)C2O)C(CC=O)CC(C)C(=O)C=CC(C)=CC1CN(Cc1ccccc1)C1CC2CCC1C2` (stereo not shown) [Compound 6, 23-deoxy-23-[N--benzyl-N--(bicyclo[2.2.1]hept-2-yl)amino]-OMT], the MIC [1] was 0.5 µg/mL (≈ 0.64 µM), the MIC ([2]; Haemophilus influenzae) was 1 µg/mL (≈ 1.28 µM) and the MIC [3] was 0.25 µg/mL (≈ 0.32 µM). For the same compound, the MIC [4] was 0.25 µg/mL (≈ 0.32 µM), the MIC [5] was 0.25 µg/mL (≈ 0.32 µM) and the MIC ([6]; Staphylococcus aureus, X400) was 0.25 µg/mL (≈ 0.32 µM). The MIC [7, 35] was 0.06 µg/mL (≈ 0.0768 µM), the MIC [8, 30] was 0.25 µg/mL (≈ 0.32 µM) and the MIC [9] was 0.25 µg/mL (≈ 0.32 µM). The MIC [10] was 0.25 µg/mL (≈ 0.32 µM), the MIC [11, 36] was 0.06 µg/mL (≈ 0.0768 µM) and the MIC [12, 33] was 0.125 µg/mL (≈ 0.16 µM). The ED50 (Streptococcus pyogenes; po, read-out: ED50 Oral) was > 100 mg/kg and the ED50 (Streptococcus pyogenes; [34]) was > 10 mg/kg.
